Source: ChEMBL document CHEMBL1777801, “3-Oxo-2-piperazinyl acetamides as potent bradykinin B1 receptor antagonists for the treatment of pain and inflammation” (Bioorg Med Chem Lett, 2011)

Legend:
[1] = in vivo; settings: Sprague-Dawley, rat, iv, 1 mg/kg
[2] = in vivo; settings: Sprague-Dawley, rat, po, 10 mg/kg
[3] = in vivo; settings: Sprague-Dawley, rat, iv, 1 mg/kg; remark: listed apart in the source
[4] = Half life in rabbit at 1 mg/kg, iv; type: ADME, organism-based, Oryctolagus cuniculus; set-up: dose 1 mg/kg, route intravenous; settings: in vivo
[5] = Half life in cynomolgus monkey at 1 mg/kg, iv; type: ADME, organism-based, Macaca fascicularis; set-up: dose 1 mg/kg, route intravenous; settings: in vivo
[6] = Oral bioavailability in rhesus monkey at 5 mg/kg; type: ADME, organism-based, Macaca mulatta; settings: in vivo
[7] = Clearance in mouse at 1 mg/kg, iv; type: ADME, organism-based; set-up: dose 1 mg/kg, route intravenous; settings: in vivo
[8] = Clearance in rhesus monkey at 1 mg/kg, iv; type: ADME, organism-based, Macaca mulatta; set-up: dose 1 mg/kg, route intravenous; settings: in vivo
[9] = Volume of distribution at steady state in rabbit at 1 mg/kg, iv; type: ADME, organism-based, Oryctolagus cuniculus; set-up: dose 1 mg/kg, route intravenous; settings: in vivo, read-out: Vdss
[10] = Half life in dog at 1 mg/kg, iv; type: ADME, organism-based, Canis lupus familiaris; set-up: dose 1 mg/kg, route intravenous; settings: in vivo
[11] = Oral bioavailability in mouse at 10 mg/kg; type: ADME, organism-based; settings: in vivo
[12] = Clearance in rabbit at 1 mg/kg, iv; type: ADME, organism-based, Oryctolagus cuniculus; set-up: dose 1 mg/kg, route intravenous; settings: in vivo
[13] = Half life in Sprague-Dawley rat at 1 mg/kg, iv administered as bolus dose; type: ADME, organism-based; set-up: dose 1 mg/kg, route intravenous; settings: in vivo
[14] = Clearance in cynomolgus monkey at 1 mg/kg, iv; type: ADME, organism-based, Macaca fascicularis; set-up: dose 1 mg/kg, route intravenous; settings: in vivo
[15] = Volume of distribution at steady state in rhesus monkey at 1 mg/kg, iv; type: ADME, organism-based, Macaca mulatta; set-up: dose 1 mg/kg, route intravenous; settings: in vivo, read-out: Vdss
[16] = Half life in mouse at 1 mg/kg, iv; type: ADME, organism-based; set-up: dose 1 mg/kg, route intravenous; settings: in vivo
[17] = Volume of distribution at steady state in cynomolgus monkey at 1 mg/kg, iv; type: ADME, organism-based, Macaca fascicularis; set-up: dose 1 mg/kg, route intravenous; settings: in vivo, read-out: Vdss
[18] = Half life in rhesus monkey at 1 mg/kg, iv; type: ADME, organism-based, Macaca mulatta; set-up: dose 1 mg/kg, route intravenous; settings: in vivo
[19] = Oral bioavailability in rabbit at 5 mg/kg; type: ADME, organism-based, Oryctolagus cuniculus; settings: in vivo
[20] = Oral bioavailability in dog at 3 mg/kg; type: ADME, organism-based, Canis lupus familiaris; settings: in vivo
[21] = Clearance in dog at 1 mg/kg, iv; type: ADME, organism-based, Canis lupus familiaris; set-up: dose 1 mg/kg, route intravenous; settings: in vivo
[22] = Volume of distribution at steady state in dog at 1 mg/kg, iv; type: ADME, organism-based, Canis lupus familiaris; set-up: dose 1 mg/kg, route intravenous; settings: in vivo, read-out: Vdss
[23] = Volume of distribution at steady state in mouse at 1 mg/kg, iv; type: ADME, organism-based; set-up: dose 1 mg/kg, route intravenous; settings: in vivo, read-out: Vdss
[24] = Oral bioavailability in cynomolgus monkey at 5 mg/kg; type: ADME, organism-based, Macaca fascicularis; settings: in vivo

Compound `Cc1ccc(S(=O)(=O)N2CCNC(=O)[C@H]2CC(=O)N[C@@H]2CCCc3cc(CNC(C)(C)C)ccc32)cc1` has a clearance [1] of 56.7 mL/min/kg, a bioavailability [2] of 0.3% and a Vd [3] of 8.34 L/kg.

For `Cc1ccc(S(=O)(=O)N2CCNC(=O)[C@H]2CC(=O)N[C@@H]2CCCc3cc(CN4CCCCC4)ccc32)cc1`, the clearance [1] was 123 mL/min/kg, the half-life [4] was 2.4 h and the bioavailability [2] was 6%. The half-life [5] was 5.6 h, the bioavailability [6] was 23% and the clearance [7] was 133 mL/min/kg. It also gave a clearance [8] of 30 mL/min/kg, a Vd [9] of 6.4 L/kg and a half-life [10] of 4.6 h. The bioavailability [11] was 6%, the clearance [12] was 53.3 mL/min/kg and the half-life [13] was 4.8 h. For the same compound, the clearance [14] was 10 mL/min/kg, the Vd [15] was 5.9 L/kg and the half-life [16] was 1.4 h. For the same compound, the Vd [3] was 9.3 L/kg, the Vd [17] was 1.6 L/kg and the half-life [18] was 3.2 h. It also gave a bioavailability [19] of 5%, a bioavailability [20] of 24% and a clearance [21] of 63.3 mL/min/kg. It also gave a Vd [22] of 16.2 L/kg, a Vd [23] of 6 L/kg and a bioavailability [24] of 17%.

With `Cc1ccc(S(=O)(=O)N2CCNC(=O)[C@H]2CC(=O)N[C@@H]2CCCc3cc(CNCC(C)(C)C)ccc32)cc1` the clearance [1] was 30 mL/min/kg, the bioavailability [2] was 16% and the Vd [3] was 3.4 L/kg.

With `O=C(C[C@@H]1C(=O)NCCN1S(=O)(=O)c1ccccc1)N[C@@H]1CCCc2cc(CN3CCCCC3)ccc21` the clearance [1] was 90 mL/min/kg and the Vd [3] was 9.9 L/kg.

`O=C(C[C@@H]1C(=O)NCCN1S(=O)(=O)c1ccc(Cl)cc1)N[C@@H]1CCCc2cc(CN3CCCCC3)ccc21` showed a clearance [1] of 112 mL/min/kg, a bioavailability [2] of 19% and a Vd [3] of 11.9 L/kg.
